The target in the experiment is T1, MAGL (Homo sapiens, UniProt Q99685).
T1 sequence (Q99685 1-303): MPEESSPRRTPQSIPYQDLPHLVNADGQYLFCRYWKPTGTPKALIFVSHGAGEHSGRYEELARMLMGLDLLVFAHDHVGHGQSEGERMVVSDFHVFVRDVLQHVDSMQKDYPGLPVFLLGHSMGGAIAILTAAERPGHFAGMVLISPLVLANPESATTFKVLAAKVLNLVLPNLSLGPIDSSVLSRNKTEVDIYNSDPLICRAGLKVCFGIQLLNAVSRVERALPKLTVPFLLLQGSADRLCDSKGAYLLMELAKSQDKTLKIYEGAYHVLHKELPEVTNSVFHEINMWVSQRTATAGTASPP
The experiment is described as follows: 2-AG assay: MAGL inhibition followed by hydrolysis of 2-arachidonoylglycerol to arachidonic acid, mass spectrometry. Type of experiment: biochemical. To be noted: measured in 2-AG assay (footnote [a]); substrate 2-arachidonoylglycerol 8 μM, 30 min at RT. An excerpt: Alternatively, compounds were profiled for MAGL inhibitory activity by determining the enzymatic activity by following the hydrolysis of the natural substrate, 2-arachidonoylglycerol, resulting in arachidonic acid, which can be followed by mass spectrometry. This assay is hereinafter abbreviated “2-AG assay”.
Detection by mass spectrometry in the present 2-AG assay has the advantage over known optical assays that the natural enzyme substrate, 2-arachidonoylglycerol, can be used instead of structurally unrelated compounds needed for optical readouts (such as 4-NPA). It thereby delivers more relevant data for activity determination, reduces false positives and generally adds to data quality. In addition, this assay reduces the analysis time from about 10 minutes per sample with standard methods to under 10 seconds per sample. This allows for using the present 2-AG assay in a method for high throughput screening of compounds for their MAGL inhibitory activity.
The 2-AG assay was carried out in 384 well assay plates (PP, Greiner Cat #784201) in a total volume of 20 μL. Compound dilutions were made in 100% DMSO (VWR Chemicals 23500.297) in a polypropylene plate in 3-fold dilution steps to give a final concentration range in the assay from 12.5 μM to […]. 0.25 μL compound dilutions (100% DMSO) were added to 9 μL MAGL in assay buffer (50 mM TRIS (GIBCO, 15567-027), 1 mM EDTA (Fluka, 03690-100 mL), 0.01% (v/v) Tween. After shaking, the plate was incubated for 15 min at RT. To start the reaction, 10 μL 2-arachidonoylglycerol in assay buffer was added. The final concentrations in the assay was […] and 8 μM 2-arachidonoylglyerol. After shaking and 30 min incubation at RT, the reaction was quenched by the addition of 40 μL of acetonitrile containing 4 μM of d8-arachidonic acid. The amount of arachidonic acid was traced by an online SPE system (Agilent Rapidfire) coupled to a triple quadrupole mass spectrometer (Agilent 6460). A C18 SPE cartridge (G9205A) was used in an acetonitrile/water liquid setup. The mass spectrometer was operated in negative electrospray mode following the mass transitions 303.1→259.1 for arachidonic acid and 311.1→267.0 for d8-arachidonic acid. The activity of the compounds was calculated based on the ratio of intensities [arachidonic acid/d8-arachidonic acid].
In a preferred embodiment, the method for determining the MAGL inhibitory activity of a test compound according to the invention, comprises: • (i) providing a solution of a test compound; • (ii) adding the solution of step (i) to a solution of MAGL; • (iii) shaking the mixture obtained from step (ii); • (iv) incubating the mixture obtained from step (iii); • (v) adding a solution of 2-arachidonoylglycerol; • (vi) incubating the mixture obtained from step (v); • (vii) adding a solution of d8-arachidonic acid; and • (viii) determining the ratio of intensities arachidonic acid/d8-arachidonic acid using a mass spectrometer.

In turn, `Cc1cccc(C)c1C#CC1CN(C(=O)N2CC[C@@H]3OCC(=O)N[C@@H]3C2)C1` [Example 169, (4aR,8aS)-6-[3-[2-(2,6-Dimethylphenyl)ethynyl]azetidine-1-carbonyl]-4,4a,5,7,8,8a-hexahydropyrido[4,3-b][1,4]oxazin-3-one] displayed an IC50 of 4 nM. This counts as single-digit nanomolar.

As to `O=C1CO[C@H]2CCN(C(=O)N3CC(C#Cc4ccccc4Cl)C3)C[C@H]2N1` [Example 133], the IC50 amounted to 9 nM.

As for `O=C1CO[C@H]2CCN(C(=O)N3CC(C#Cc4ccc(Cl)s4)C3)C[C@H]2N1` [Example 187, (4aR,8aS)-6-[3-[2-(5-Chlorothiophen-2-yl)ethynyl]azetidine-1-carbonyl]-4,4a,5,7,8,8a-hexahydropyrido[4,3-b][1,4]oxazin-3-one], half-maximal inhibition (IC50) required 18 nM.

As to `O=C1CO[C@H]2CCN(C(=O)N3CC(C#Cc4ccc(Cl)cc4C(F)(F)F)C3)C[C@H]2N1` [Example 164, (4aR,8aS)-6-[3-[2-[4-Chloro-2-(trifluoromethyl)phenyl]ethynyl]azetidine-1-carbonyl]-4,4a,5,7,8,8a-hexahydropyrido[4,3-b][1,4]oxazin-3-one], the IC50 was 3 nM.

In turn, `O=C1CO[C@H]2CCN(C(=O)N3CCC(C#Cc4ccc(Cl)cc4Cl)CC3)C[C@H]2N1` [Example 131, (+)-(4aR,8aS)-6-[4-[2-(2,4-Dichlorophenyl)ethynyl]piperidine-1carbonyl]-4,4a,5,7,8,8a-hexahydropyrido[4,3-b][1,4]oxazin-3-one] displayed an IC50 of 22 nM.

`O=C1CO[C@H]2CCN(C(=O)N3CC(CNC(c4ccc(C(F)(F)F)cc4)C(F)(F)F)C3)C[C@H]2N1` (stereo partly drawn) [Example 41, (4aR,8aS)-6-[3-[[[2,2,2-Trifluoro-1-[4-(trifluoromethyl)phenyl]ethyl]amino]methyl]azetidine-1-carbonyl]hexahydro-2H-pyrido[4,3-b][1,4]oxazin-3(4H)-one] registered an IC50 of 24 nM.

`O=C1CO[C@H]2CCN(C(=O)N3CC(C#Cc4ccc(C(F)(F)F)cc4Cl)C3)C[C@H]2N1` [Example 200, (4aR,8aS)-6-(3-((2-Chloro-4-(trifluoromethyl)phenyl)ethynyl)azetidine-1-carbonyl)hexahydro-2H-pyrido[4,3-b][1,4]oxazin-3(4H)-one] yielded an IC50 of 2 nM.

`O=C1CO[C@H]2CCN(C(=O)N3CC([S+]([O-])c4ccc(C(F)(F)F)cc4Cl)C3)C[C@H]2N1` (single isomer, unassigned) [Example 147]: the IC50 was determined as 12500 nM. This IC50 lies about 6200-fold higher than the previous one.

Turning to `O=C1CO[C@H]2CCN(C(=O)N3CC(C#Cc4ccc(C5CC5)cc4)C3)C[C@H]2N1` [Example 179, (4aR,8aS)-6-[3-[2-(4-Cyclopropylphenyl)ethynyl]azetidine-1-carbonyl]-4,4a,5,7,8,8a-hexahydropyrido[4,3-b][1,4]oxazin-3-one], the IC50 is 6 nM.

With `COc1cccc(C#CC2CN(C(=O)N3CC[C@@H]4OCC(=O)N[C@@H]4C3)C2)c1` [Example 181, (4aR,8aS)-6-[3-[2-(3-Methoxyphenyl)ethynyl]azetidine-1-carbonyl]-4,4a,5,7,8,8a-hexahydropyrido[4,3-b][1,4]oxazin-3-one], the IC50 stood at 13 nM.

Turning to `O=C1CO[C@H]2CCN(C(=O)N3CC(S(=O)(=O)c4ccc(C(F)(F)F)cc4Cl)C3)C[C@H]2N1` [Example 144, (4aR,8aS)-6-[3-[2-Chloro-4-(trifluoromethyl)phenyl]sulfonylazetidine-1-carbonyl]-4,4a,5,7,8,8a-hexahydropyrido[4,3-b][1,4]oxazin-3-one], the IC50 turned out to be 2640 nM.

Turning to `COc1ccccc1C#CC1CCN(C(=O)N2CC[C@@H]3OCC(=O)N[C@@H]3C2)CC1` [Example 193, (4aR,8aS)-6-(4-((2-Methoxyphenyl)ethynyl)piperidine-1carbonyl)hexahydro-2H-pyrido[4,3-b][1,4]oxazin-3(4H)-one], the midpoint of inhibition, the IC50, lay at 86 nM.

In turn, `CN(C(=O)Cc1cccc(C(F)(F)F)c1Cl)C1CCN(C(=O)N2CC[C@@H]3OCC(=O)N[C@@H]3C2)CC1` [Example 83, N-[1-[(4aR,8aS)-3-oxo-4,4a,5,7,8,8a-hexahydropyrido[4,3-b][1,4]oxazine-6-carbonyl]piperidin-4-yl]-2-[2-chloro-3-(trifluoromethyl)phenyl]-N-methylacetamide] registered an IC50 of 608 nM.

As to `CC1(C#Cc2ccc(F)cc2Cl)CCN(C(=O)N2CC[C@@H]3OCC(=O)N[C@@H]3C2)CC1` [Example 197, (4aR,8aS)-6-(4-((2-Chloro-4-fluorophenyl)ethynyl)-4-methylpiperidine-1-carbonyl)hexahydro-2H-pyrido[4,3-b][1,4]oxazin-3(4H)-one], the IC50 came out at 230 nM.

On to `O=C1CO[C@H]2CCN(C(=O)N3CC(Sc4ccc(C(F)(F)F)cc4Cl)C3)C[C@H]2N1` [Example 143, (4aR,8aS)-6-[3-[2-Chloro-4-(trifluoromethyl)phenyl]sulfanylazetidine-1-carbonyl]-4,4a,5,7,8,8a-hexahydropyrido[4,3-b][1,4]oxazin-3-one], for which the IC50 was found to be 105 nM. Compared with the last compound, the IC50 is about 2.2-fold lower.

Regarding `O=C1CO[C@H]2CCN(C(=O)N3CCC(C#Cc4cnccc4Cl)CC3)C[C@H]2N1` [Example 126, (+)-(4aR,8aS)-6-[4-[2-(4-Chloropyridin-3-yl)ethynyl]piperidine-1-carbonyl]-4,4a,5,7,8,8a-hexahydropyrido[4,3-b][1,4]oxazin-3-one], the IC50 was 306 nM.

The compound `Cc1ccccc1C#CC1CCN(C(=O)N2CC[C@@H]3OCC(=O)N[C@@H]3C2)CC1` [Example 194, (4aR,8aS)-6-(4-(o-Tolylethynyl)piperidine-1-carbonyl)hexahydro-2H-pyrido[4,3-b][1,4]oxazin-3(4H)-one] had an IC50 of 31 nM. Compared with the last compound, the IC50 is about 9.9-fold lower.

Consider `O=C1CO[C@H]2CCN(C(=O)N3CC(C#Cc4ccc(Cl)cc4F)C3)C[C@H]2N1` [Example 174, (4aR,8aS)-6-[3-[2-(4-Chloro-2-fluorophenyl)ethynyl]azetidine-1-carbonyl]-4,4a,5,7,8,8a-hexahydropyrido[4,3-b][1,4]oxazin-3-one], for which the half-maximal inhibitory concentration (IC50) turned out to be 12 nM.

Turning to `O=C1CO[C@H]2CCN(C(=O)N3CC(C#Cc4ccc(OC(F)F)cc4)C3)C[C@H]2N1` [Example 177, (4aR,8aS)-6-[3-[2-[4-(Difluoromethoxy)phenyl]ethynyl]azetidine-1-carbonyl]-4,4a,5,7,8,8a-hexahydropyrido[4,3-b][1,4]oxazin-3-one], half-maximal inhibition (IC50) required 22 nM.

For `O=C1CO[C@H]2CCN(C(=O)N3CC(C#Cc4ccc(C(F)(F)F)cc4F)C3)C[C@H]2N1` [Example 158, (4aR,8aS)-6-[3-[2-[2-Fluoro-4-(trifluoromethyl)phenyl]ethynyl]azetidine-1-carbonyl]-4,4a,5,7,8,8a-hexahydropyrido[4,3-b][1,4]oxazin-3-one], the IC50 was determined as 5 nM.

Regarding `O=C1CO[C@H]2CCN(C(=O)N3CC(CNC(c4ccc(F)cc4)C(F)(F)F)C3)C[C@H]2N1` (stereo partly drawn) [Example 106, (4aR,8aS)-6-[3-[[[2,2,2-Trifluoro-1-(4-fluorophenyl)ethyl]amino]methyl]azetidine-1-carbonyl]-4,4a,5,7,8,8a-hexahydropyrido[4,3-b][1,4]oxazin-3-one], half-maximal inhibition (IC50) was put at 264 nM. Compared with the last compound, the IC50 is about 53-fold higher.

For the compound `O=C1CO[C@H]2CCN(C(=O)N3CC(C#CC4(O)CCCC4)C3)C[C@H]2N1` [Example 198, (4aR,8aS)-6-[3-[2-(1-Hydroxycyclopentyl)ethynyl]azetidine-1-carbonyl]-4,4a,5,7,8,8a-hexahydropyrido[4,3-b][1,4]oxazin-3-one], the IC50 was found to be 507 nM.

Take `O=C1CO[C@H]2CCN(C(=O)N3CC(C#Cc4ccc(C5CC5)cc4Cl)C3)C[C@H]2N1` [Example 162, (4aR,8aS)-6-(3-((2-Chloro-4-cyclopropylphenyl)ethynyl)azetidine-1-carbonyl)hexahydro-2H-pyrido[4,3-b][1,4]oxazin-3(4H)-one]: the IC50 came out at 1 nM. Compared with the last compound, the IC50 is about 510-fold lower.

These data come from patent US20210277020A1, “HETEROCYCLIC COMPOUNDS AS MONOACYLGLYCEROL LIPASE INHIBITORS” (Hoffmann-La Roche Inc., priority 2018, published 2021).
